# A melting point compilation (Tetko et al.; mined from patent text by program, amines drawn as free bases though some values may be those of a salt)
row,melting point,Compound
1,221 to 222 °C,CC(C)n1c(=O)ccc2cnc(Nc3ccc(N4CCN(C)CC4)cc3)nc21
2,95 to 96 °C,CC1(C)C=Cc2cc(S(=O)(=O)c3ccccc3)ccc2O1
3,> 300 °C,C[Si](C)(C)c1cc(C(=O)O)cc([Si](C)(C)C)c1
4,300 °C,CC1CCc2c(C#N)ccc3c(=O)c(C(=O)O)cn1c23 (stereo not given)
5,144 °C,Cc1noc(C)c1S(=O)(=O)Nc1ccc(Cl)cc1
6,233 to 235 °C,O=C(Nc1ccc(Cl)cc1)c1ccc([N+](=O)[O-])cc1
7,195 to 199 °C,COC1=NC(=O)N(C)S(=O)(=O)N1
8,199 to 200 °C,CCC(CS(=O)(=O)c1ccc(-c2ccc(OC)cc2)cc1)N(O)C=O (stereo not given)
9,148 °C,CCOC(=O)C1=C(C)NC(C)=C(C(=O)OC(C)C)C1c1cccc([N+](=O)[O-])c1 (stereo not given)
10,115 to 117 °C,CNc1cc(C(C)=O)ccc1OCCCCl
11,288 to 290 °C,CC(=NNC(=N)N)c1sc(-c2ccc3ccccc3c2)nc1C
12,62 to 63 °C,COC(=O)C=C1NC(C)(CO)COC1=O (stereo not given)
13,256 to 258 °C,NC(=O)c1cnn2c(-c3cccc(C(F)(F)F)c3)ccnc12
14,221 to 223 °C,CNC(=O)NN=Cc1ncc([N+](=O)[O-])n1C
15,131 to 134 °C,CCNC(=O)c1sc2ccccc2c1[Si](C)(C)C
16,100 to 102 °C,CCCCCNC(=O)c1ccc(N2CCC(N3C(=O)C(F)(F)c4ccccc43)CC2)nn1

# The remaining lines, values behind:
row,Compound,melting point
1,NCC1Cc2cccc3cccc1c23 (stereo not given),> 250 °C
2,CCn1cc(C(=O)NCc2ccc(Cl)cc2)c(=O)c2cc(CN(C)C[C@@H](O)c3ccco3)sc21,123 to 127 °C
3,CSC(N)=Nc1nncs1,116 to 117 °C
4,O=C(O)c1cccc2c1Cc1c-2[nH]c2ccc(Cl)cc12,> 300 °C
5,O=C1NCC[C@@H]1NCc1ccc(OCc2cccc(F)c2)cc1,140 to 144 °C
6,O=C1N(Cc2ccc(Cl)s2)c2ccc(F)cc2C12COc1cc3c(cc12)OCO3 (stereo not given),142 to 144 °C
7,CCCC12CCC3c4ccc(OC)cc4CCC3C1CCC2O (stereo not given),141 to 143 °C
8,CC(C)N[C@@H](Cc1ccccc1)C(=O)N1CCN(C(c2ccc(F)cc2)c2ccc(F)cc2)CC1,45 to 58 °C
9,CCCCc1nc(C(O)C(C)C)c(C(N)=O)n1Cc1ccc(-c2ccccc2-c2nnn[nH]2)cc1 (stereo not given),155 to 157 °C
10,O=C(CCNC(=O)OCc1ccccc1)NCCSC(=O)OCc1ccccc1,121 to 122 °C
11,N=c1c2ccccc2ccc2ccccc12,60 to 62 °C
12,O[C@H](COc1cccc2[nH]ccc12)CN1CC=C(c2c[nH]c3cc(F)ccc23)CC1,95 to 100 °C
13,CCOC(=O)c1cn2c3c(cccc3c1=O)C1CCCCC12 (stereo not given),71 to 73 °C
14,C=C1CC(COc2cc(=O)oc3ccccc23)(c2ccccc2)OC1=O (stereo not given),212 to 214 °C
15,CCC1(O)CC2CC[C@]1(CS(=O)(=O)N1CCC3(C=Cc4ccccc43)CC1)C2(C)C (stereo not given in full),171 to 173 °C
16,CCOC(=O)Cc1cc(Br)c(OC(=S)N(C)C)c(Br)c1,93 to 95 °C
17,Cc1cc(Cl)c2c(ccc3nc(C)[nH]c32)n1,314 to 330 °C

row,Compound,melting point
1,O=C(Cn1cccc(OCc2ccccc2)c1=O)ON1C(=O)CCC1=O,187 to 188 °C
2,O=C(O)c1ccsc1C(F)F,127 to 128 °C
3,Cc1cccc(C)c1NCC(C)Nc1c(C)cccc1C (stereo not given),52 to 55 °C
4,O=[N+]([O-])c1cc(CO)cc([N+](=O)[O-])c1,89 °C
5,CC(C)OC(=O)N1CCC(NC(=O)N2CCn3c(c(C(N)=O)c(C#N)c3C3CC3)C2)CC1,181 to 182 °C
6,COc1cc(C2=NC(C)(C)C(c3ccncc3)C2)cc(OC)c1OC (stereo not given),143 to 144 °C
7,CC(C)(CCCSCSCCCC(C)(C)C(=O)O)C(=O)O,72 to 72.5 °C
8,OC(=S)c1cc(C(F)(F)F)c(Cl)cc1Cl,112 to 114 °C
9,CN(C)c1nc(N(C)C)nc(N(C)Cc2ccccc2O)n1,169 to 171 °C
10,O=C(Nc1cc(Cl)c(O)c(Cl)c1)c1ccc(F)cc1O,223 to 224 °C
11,COc1cccc(CCc2c(C(=O)O)ccc(OC)c2OC)c1,156 to 158 °C
12,Cc1cc2c(cc1C)C(C)(C)N(Cc1ccccc1)C2(C)C,98 to 100 °C
13,O=C1Nc2ccc(I)cc2C1=NNC(=O)c1ccc(OC(F)(F)F)cc1,306 °C
14,C1=CC(n2c(-c3ccc4c(c3)OCO4)nc3ccccc32)CCC1 (stereo not given),119 to 120 °C
15,O=C(O)CCC(=O)c1cc(Cl)ccc1O,172 to 173 °C
16,CCOP(=O)(OCC)c1c(-c2c(OC)ccc3ccccc23)cc2c(c1C)COC2,68 to 69.9 °C
17,CCCCCCCNC(=O)Nc1ccc(N(C)C)cc1C(=O)NCC1CC2CCC(C1)N2C(c1ccccc1)c1ccccc1 (stereo not given),195 °C
